Test results published in the supplement of paper PMC10307832.

Tests used:
Test in all cases: relative viability (nuclei count vs DMSO), 5 days (fraction); higher = more cells survive
[1] = compound: CC1=C(N=C(N=C1N)[C@H](CC(=O)N)NC[C@@H](C(=O)N)N)C(=O)N[C@@H]([C@H](C2=CN=CN2)OC3C(C(C(C(O3)CO)O)O)OC4C(C(C(C(O4)CO)O)OC(=O)N)O)C(=O)N[C@H](C)[C@H]([C@H](C)C(=O)N[C@@H]([C@@H](C)O)C(=O)NCCC5=NC(=CS5)C6=NC(=CS6)C(=O)NCCC[S+](C)C)O [Bleomycin] + C[C@]1(O)C[C@@H](c2nc(-c3ccc4ccc(-c5ccccc5)nc4c3)c3c(N)nccn32)C1 [Linsitinib] (partner 1 µM); conditions: main component drawn
How it was run: (§1)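 Relative viability equals treated-well nuclei counts divided by vehicle-well nuclei counts. Counts came from 4× images of lung cancer cell lines grown in 1536-well plates for 5 days after pin-tool dosing on the day after seeding. Dosing used one drug alone or a fixed anchor-drug dose plus five library-drug doses (not always all listed) in √10 steps, and values are medians of duplicate plates.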

[2] = compound: COc1cc([C@@H]2c3cc4c(cc3[C@@H](O[C@@H]3O[C@@H]5CO[C@@H](C)O[C@H]5[C@H](O)[C@H]3O)[C@H]3COC(=O)[C@H]23)OCO4)cc(OC)c1O [Etoposide] + CC(=O)c1c(C)c2cnc(Nc3ccc(N4CCNCC4)cn3)nc2n(C2CCCC2)c1=O [Palbociclib] (partner 0.5 µM)
How it was run: as §1

[3] = compound: COc1cc([C@@H]2c3cc4c(cc3[C@@H](O[C@@H]3O[C@@H]5CO[C@@H](C)O[C@H]5[C@H](O)[C@H]3O)[C@H]3COC(=O)[C@H]23)OCO4)cc(OC)c1O [Etoposide] + Nc1ncn([C@H]2C[C@H](O)[C@@H](CO)O2)c(=O)n1 [Decitabine] (partner 2 µM)
How it was run: as §1

[4] = compound: CC1=C(N=C(N=C1N)[C@H](CC(=O)N)NC[C@@H](C(=O)N)N)C(=O)N[C@@H]([C@H](C2=CN=CN2)OC3C(C(C(C(O3)CO)O)O)OC4C(C(C(C(O4)CO)O)OC(=O)N)O)C(=O)N[C@H](C)[C@H]([C@H](C)C(=O)N[C@@H]([C@@H](C)O)C(=O)NCCC5=NC(=CS5)C6=NC(=CS6)C(=O)NCCC[S+](C)C)O [Bleomycin] + C[C@@H](Oc1cc(-c2cnn(C3CCNCC3)c2)cnc1N)c1c(Cl)ccc(F)c1Cl [Crizotinib] (partner 1 µM); conditions: main component drawn
How it was run: as §1

Row | Cell Line | relative viability ([1]; first compound 0.01 µM) | relative viability ([1]; first compound 0.03162 µM) | relative viability ([1]; first compound 0.1 µM) | relative viability ([1]; first compound 0.3162 µM) | relative viability ([1]; first compound 1 µM) | relative viability ([2]; first compound 0.01 µM) | relative viability ([2]; first compound 0.03162 µM) | relative viability ([2]; first compound 0.1 µM) | relative viability ([2]; first compound 0.3162 µM) | relative viability ([2]; first compound 1 µM) | relative viability ([3]; first compound 0.01 µM) | relative viability ([3]; first compound 0.03162 µM) | relative viability ([3]; first compound 0.1 µM) | relative viability ([3]; first compound 0.3162 µM) | relative viability ([3]; first compound 1 µM) | relative viability ([4]; first compound 0.01 µM) | relative viability ([4]; first compound 0.03162 µM) | relative viability ([4]; first compound 0.1 µM) | relative viability ([4]; first compound 0.3162 µM) | relative viability ([4]; first compound 1 µM)
1 | LCLC-97TM1 | 0.138 | 0.165 | 0.141 | 0.109 | 0.0963 | 0.243 | 0.248 | 0.169 | 0.165 | 0.121 | 0.253 | 0.222 | 0.302 | 0.129 | 0.11 | 0.18 | 0.219 | 0.14 | 0.109 | 0.0966
2 | LCLC-103H | 1.03 | 1.06 | 1.06 | 1.13 | 0.564 | 0.526 | 0.553 | 0.509 | 0.457 | 0.407 | 0.763 | 0.835 | 0.766 | 0.71 | 0.599 | 0.956 | 1.01 | 1 | 0.915 | 0.588
3 | LK-2 | 0.418 | 0.373 | 0.318 | 0.198 | 0.255 | 0.618 | 0.588 | 0.451 | 0.412 | 0.275 | 0.289 | 0.302 | 0.159 | 0.177 | 0.171 | 0.237 | 0.216 | 0.213 | 0.229 | 0.273
4 | LOU-NH91 | 0.78 | 0.611 | 0.522 | 0.37 | 0.317 | 0.556 | 0.545 | 0.516 | 0.468 | 0.428 | 0.783 | 0.876 | 0.778 | 0.766 | 0.54 | 0.593 | 0.537 | 0.531 | 0.39 | 0.331
5 | LU99A | 0.379 | 0.348 | 0.252 | 0.166 | 0.127 | 0.392 | 0.427 | 0.266 | 0.226 | 0.166 | 0.893 | 0.928 | 0.504 | 0.473 | 0.246 | 0.344 | 0.358 | 0.284 | 0.12 | 0.16
6 | LXF-289 | 0.899 | 0.91 | 0.839 | 0.389 | 0.186 | 0.618 | 0.606 | 0.621 | 0.487 | 0.331 | 0.378 | 0.383 | 0.306 | 0.307 | 0.194 | 0.725 | 0.678 | 0.679 | 0.239 | 0.149
7 | NCI-H23 | 0.292 | 0.253 | 0.225 | 0.152 | 0.137 | 0.504 | 0.515 | 0.485 | 0.334 | 0.236 | 0.333 | 0.317 | 0.291 | 0.235 | 0.242 | 0.249 | 0.231 | 0.251 | 0.162 | 0.153
8 | NCI-H322M | 0.961 | 1.01 | 0.95 | 1.1 | 0.684 | 0.526 | 0.481 | 0.436 | 0.467 | 0.445 | 0.71 | 0.696 | 0.584 | 0.623 | 0.563 | 0.701 | 0.852 | 0.908 | 0.958 | 0.527
9 | NCI-H358 | 0.674 | 0.738 | 0.666 | 0.455 | 0.39 | 0.132 | 0.148 | 0.131 | 0.104 | 0.0757 | 0.229 | 0.212 | 0.155 | 0.136 | 0.103 | 0.484 | 0.486 | 0.514 | 0.29 | 0.263
10 | NCI-H441 | – | 0.57 | 0.564 | 0.209 | 0.255 | 0.194 | 0.251 | 0.177 | 0.191 | 0.128 | 0.273 | 0.239 | 0.241 | 0.213 | 0.169 | – | 0.534 | 0.469 | 0.363 | 0.398
11 | NCI-H460 | 0.448 | 0.356 | 0.158 | 0.0344 | 0.0252 | 0.131 | 0.11 | 0.111 | 0.0408 | 0.0313 | 0.432 | 0.454 | 0.319 | 0.105 | 0.0405 | 0.331 | 0.0828 | 0.0648 | 0.0162 | 0.0149
12 | NCI-H520 | 0.949 | 0.987 | 0.973 | 0.687 | 0.566 | 0.256 | 0.245 | 0.193 | 0.254 | 0.227 | 0.532 | 0.493 | 0.519 | 0.424 | 0.376 | 0.531 | 0.898 | 0.735 | 0.505 | 0.4
13 | NCI-H647 | 0.649 | 0.487 | 0.321 | 0.13 | 0.102 | 0.423 | 0.458 | 0.321 | 0.258 | 0.216 | 0.363 | 0.369 | 0.31 | 0.193 | 0.175 | 0.313 | 0.326 | 0.213 | 0.135 | 0.109
14 | NCI-H650 | 0.585 | 0.791 | 0.582 | 0.328 | 0.199 | 0.29 | 0.299 | 0.26 | 0.237 | 0.161 | 0.318 | 0.339 | 0.278 | 0.205 | 0.174 | 0.502 | 0.718 | 0.629 | 0.237 | 0.303
